We go through 14 compounds from ChEMBL document CHEMBL5346943, “Discovery and Structural Optimization of Novel Quinolone Derivatives as Potent Irreversible Pan-Fibroblast Growth Factor Receptor Inhibitors for Treating Solid Tumors” (J Med Chem, 2023).

A value given as a limit tells only on which side of the number the result lay.

The target of series [1] is T1, Fibroblast growth factor receptor 4 (Homo sapiens, UniProt P22455). Kind of series: Inhibition of FGFR4 (unknown origin) incubated for 10 mins followed by substrate addition measured after 60 mins by ADP-Glo luminescence assay. Background: ADP-Glo first removes unused ATP, then detects ADP through luciferase.
Target sequence in this assay (P22455 whole entry): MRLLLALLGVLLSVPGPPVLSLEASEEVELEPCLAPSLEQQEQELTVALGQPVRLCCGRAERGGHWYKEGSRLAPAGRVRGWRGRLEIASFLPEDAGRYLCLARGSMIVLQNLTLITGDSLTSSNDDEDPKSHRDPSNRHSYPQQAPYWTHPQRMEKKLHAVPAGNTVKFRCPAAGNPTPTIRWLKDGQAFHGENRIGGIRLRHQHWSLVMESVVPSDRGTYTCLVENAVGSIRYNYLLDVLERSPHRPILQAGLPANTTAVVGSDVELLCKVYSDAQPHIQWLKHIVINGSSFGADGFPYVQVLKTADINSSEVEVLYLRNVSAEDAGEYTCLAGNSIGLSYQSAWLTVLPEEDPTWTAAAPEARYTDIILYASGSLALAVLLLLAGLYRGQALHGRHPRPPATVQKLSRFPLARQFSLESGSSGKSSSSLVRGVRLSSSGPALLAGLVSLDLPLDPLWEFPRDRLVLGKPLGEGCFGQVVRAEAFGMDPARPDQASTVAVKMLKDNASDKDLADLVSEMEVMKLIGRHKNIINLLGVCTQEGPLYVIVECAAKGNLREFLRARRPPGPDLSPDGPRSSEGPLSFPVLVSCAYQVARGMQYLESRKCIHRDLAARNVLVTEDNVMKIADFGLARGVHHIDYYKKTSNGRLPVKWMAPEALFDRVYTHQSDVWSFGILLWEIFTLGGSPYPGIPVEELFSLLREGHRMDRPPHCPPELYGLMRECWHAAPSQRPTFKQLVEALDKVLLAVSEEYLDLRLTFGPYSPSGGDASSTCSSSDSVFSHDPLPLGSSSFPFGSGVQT
In the next series the test system is Huh-7. Kind of series: Antiproliferative activity against human Huh-7 cells incubated for 72 hrs by Cell counting kit 8 method. Type of series: functional, cell-based. The settings on record: Huh-7, 72 h. On the technique in general: Formazan colour is commonly taken as a measure of viable cells.
Another series has as its system Hep 3B2. Kind of series: Antiproliferative activity against human Hep3B cells incubated for 72 hrs by Cell counting kit 8 method. Type of series: functional, cell-based.
The nature of series [2]: Microsomal stability in human liver microsomes assessed as half life preincubated for 10 mins followed by NADPH addition measured upto 60 mins by LC-MS/MS analysis. Type of series: ADME, Microsome. The settings on record: time < 70 min.
In series [3] the target is Fibroblast growth factor receptor 1 (Homo sapiens, UniProt P11362). Kind of series: Inhibition of FGFR1 (unknown origin) incubated for 10 mins followed by substrate addition measured after 60 mins by ADP-Glo luminescence assay.
A short description of series [4]: Microsomal stability in human liver microsomes assessed as intrinsic clearance preincubated for 10 mins followed by NADPH addition measured upto 60 mins by LC-MS/MS analysis. The following applies: time < 70 min, read-out: CLH. Type of series: ADME, Microsome.
The target in series [5] is Fibroblast growth factor receptor 2 (Homo sapiens, UniProt P21802). Kind of series: Inhibition of FGFR2 (unknown origin) incubated for 10 mins followed by substrate addition measured after 60 mins by ADP-Glo luminescence assay.
Series [6] is described as follows: Ionization constant, pKa of the compound in PBS buffer at pH 1.42 to 12.33 by electrochemical method. The series is classed as physicochemical.
Series [7] can be described thus: Permeability of the compound at 10 uM preincubated in acceptor compartment for 16 hrs followed by 16 hrs incubation in donor compartment by PAMPA based LC-MS/MS analysis. The series is classed as ADME. The following applies: time 32 hrs, read-out: permeability. (In PAMPA a lipid-coated filter parts donor from acceptor wells.)
For series [8], the target named is T1, Fibroblast growth factor receptor 4. Kind of series: Inhibition of FGFR4 (unknown origin) at 100 nM incubated for 10 mins followed by substrate addition measured after 60 mins by ADP-Glo luminescence assay relative to control. The following applies: time 70.0 min.
Target sequence in this assay (P22455 22-802 limits assumed): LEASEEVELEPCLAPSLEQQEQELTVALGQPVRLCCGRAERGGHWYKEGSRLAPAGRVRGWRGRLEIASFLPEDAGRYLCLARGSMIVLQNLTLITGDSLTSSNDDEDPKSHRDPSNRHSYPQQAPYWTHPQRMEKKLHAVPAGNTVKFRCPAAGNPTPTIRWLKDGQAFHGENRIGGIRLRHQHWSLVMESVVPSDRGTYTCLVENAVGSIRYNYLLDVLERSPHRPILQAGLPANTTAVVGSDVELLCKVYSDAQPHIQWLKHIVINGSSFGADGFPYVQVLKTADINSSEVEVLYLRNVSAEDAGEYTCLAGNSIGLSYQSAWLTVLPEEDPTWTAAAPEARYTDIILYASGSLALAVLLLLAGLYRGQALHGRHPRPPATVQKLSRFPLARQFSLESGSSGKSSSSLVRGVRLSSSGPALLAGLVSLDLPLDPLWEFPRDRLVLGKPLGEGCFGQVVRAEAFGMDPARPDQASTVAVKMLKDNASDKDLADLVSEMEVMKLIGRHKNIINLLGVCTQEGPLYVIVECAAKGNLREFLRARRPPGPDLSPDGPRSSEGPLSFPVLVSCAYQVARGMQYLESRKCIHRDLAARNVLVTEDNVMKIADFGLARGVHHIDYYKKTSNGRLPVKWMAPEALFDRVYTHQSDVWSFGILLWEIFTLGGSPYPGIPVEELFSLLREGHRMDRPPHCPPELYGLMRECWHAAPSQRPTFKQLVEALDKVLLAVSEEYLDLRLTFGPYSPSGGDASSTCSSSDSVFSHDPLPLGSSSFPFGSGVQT

Chain of Fibroblast growth factor receptor 2 (P21802 whole entry): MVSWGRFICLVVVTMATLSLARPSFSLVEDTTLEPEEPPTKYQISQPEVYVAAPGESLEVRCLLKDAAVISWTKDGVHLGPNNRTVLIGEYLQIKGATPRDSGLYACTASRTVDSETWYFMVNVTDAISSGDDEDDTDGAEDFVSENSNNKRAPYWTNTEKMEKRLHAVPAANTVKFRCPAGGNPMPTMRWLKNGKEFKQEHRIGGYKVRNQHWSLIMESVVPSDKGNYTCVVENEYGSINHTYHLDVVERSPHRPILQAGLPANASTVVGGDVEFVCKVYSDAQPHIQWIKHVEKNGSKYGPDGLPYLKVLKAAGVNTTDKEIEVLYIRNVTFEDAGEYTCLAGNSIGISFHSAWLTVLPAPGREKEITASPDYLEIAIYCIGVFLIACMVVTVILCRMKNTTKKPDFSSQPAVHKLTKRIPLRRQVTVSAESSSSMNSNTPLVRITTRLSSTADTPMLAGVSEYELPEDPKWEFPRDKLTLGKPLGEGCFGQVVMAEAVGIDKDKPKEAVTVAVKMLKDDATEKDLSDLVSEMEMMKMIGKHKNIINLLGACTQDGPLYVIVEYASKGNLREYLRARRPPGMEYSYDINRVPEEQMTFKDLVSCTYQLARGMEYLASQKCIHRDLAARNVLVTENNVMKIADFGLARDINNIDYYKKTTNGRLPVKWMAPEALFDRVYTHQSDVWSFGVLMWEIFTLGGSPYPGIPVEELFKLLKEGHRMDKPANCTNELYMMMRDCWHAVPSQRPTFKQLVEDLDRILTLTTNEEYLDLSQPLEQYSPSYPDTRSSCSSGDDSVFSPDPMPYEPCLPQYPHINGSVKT
Chain of Fibroblast growth factor receptor 1 (P11362 whole entry): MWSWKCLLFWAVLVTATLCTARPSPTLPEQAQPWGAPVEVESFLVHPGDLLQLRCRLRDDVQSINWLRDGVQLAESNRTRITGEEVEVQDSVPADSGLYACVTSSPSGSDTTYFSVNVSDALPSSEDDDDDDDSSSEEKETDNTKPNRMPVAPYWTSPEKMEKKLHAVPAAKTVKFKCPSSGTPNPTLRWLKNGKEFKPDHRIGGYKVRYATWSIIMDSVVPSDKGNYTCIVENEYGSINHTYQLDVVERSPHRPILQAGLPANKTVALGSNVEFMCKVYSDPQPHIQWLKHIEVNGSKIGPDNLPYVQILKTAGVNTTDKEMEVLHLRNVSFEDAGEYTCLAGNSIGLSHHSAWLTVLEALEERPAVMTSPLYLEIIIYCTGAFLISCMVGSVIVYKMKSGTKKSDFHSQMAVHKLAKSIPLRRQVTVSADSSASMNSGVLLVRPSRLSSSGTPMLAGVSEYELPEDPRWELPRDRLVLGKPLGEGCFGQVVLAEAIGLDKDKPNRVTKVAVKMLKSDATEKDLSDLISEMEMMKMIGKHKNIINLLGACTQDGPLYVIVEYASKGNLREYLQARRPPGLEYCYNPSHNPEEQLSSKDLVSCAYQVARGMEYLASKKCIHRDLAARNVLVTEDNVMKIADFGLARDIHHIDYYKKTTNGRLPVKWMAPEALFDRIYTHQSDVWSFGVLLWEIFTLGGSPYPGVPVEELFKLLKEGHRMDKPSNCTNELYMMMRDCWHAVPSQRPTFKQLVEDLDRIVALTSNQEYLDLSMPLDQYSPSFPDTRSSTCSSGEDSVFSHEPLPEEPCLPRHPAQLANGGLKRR

For orientation: IC50 means the midpoint of a concentration-inhibition curve. A higher IC50 goes with lower potency. With `C=CC(=O)N1CC=C(c2cc3c(Oc4ccc(NC(=O)NC5CC5)c(Cl)c4)ccnc3cc2OC)CC1`, the half-maximal inhibitory concentration (IC50) in [1] came out at 2.88 nM; in the series with Huh-7, 54.3 nM; with Hep 3B2, 66.2 nM.

With `C=CC(=O)N1CCC(c2cc3c(Oc4ccc(NC(=O)NC5CC5)c(Cl)c4)ccnc3cc2OCC(F)(F)F)CC1`, the IC50 in series [1] was found to be 14.5 nM; in the series on Huh-7, 15.5 nM; in the series with Hep 3B2, 30.2 nM.

The term half-life denotes how long it takes for the measured level to halve. What is called pKa is the negative logarithm of the acid dissociation constant. Take `COc1cc2nccc(Oc3ccc(NC(=O)NC4CC4)c(Cl)c3)c2cc1C(N)=O` [LENVATINIB]: the half-life in series [2] was 22.4 min. The IC50 in series [3] amounted to 66 nM; with Huh-7, 851 nM; with Hep 3B2, 696 nM; in series [5] it was 11 nM. In addition, the microsomal CLint in [4] is 74.1 µL/min/mg. The pKa in series [6] was 5.27. For the same compound, the Papp at 16 h, 10 µM in [7] amounted to 9.27 ×10⁻⁶ cm/s.

As for `C=CC(=O)N1CCC(c2cc3c(Oc4ccc(NC(=O)c5c(C)n(C)n(-c6ccccc6)c5=O)cc4F)ccnc3cc2OC)CC1`, the half-maximal inhibitory concentration (IC50) stood at 1710 nM with Huh-7 and 450 nM in the series on Hep 3B2.

As usually defined, the inhibition is the percentage by which the read-out fell short of the control. `C=CC(=O)N1CCC(c2cc3c(Oc4ccc5c(C(=O)NC)c(C)oc5c4)ccnc3cc2OC)CC1`: the results for the IC50 in the series on Huh-7 and in the series with Hep 3B2 were 32.9 nM and 41 nM, respectively. This compound also registered an inhibition in series [8] of 40.7%.

`C=CC(=O)N1CCC(c2cc3c(Oc4ccc(NC(=O)Cc5ccccc5)cc4F)ccnc3cc2OC)CC1`: the IC50 in the series with Huh-7 turned out to be 2210 nM; in the series on Hep 3B2, 1350 nM. This compound had an inhibition in [8] of 1.1%.

Take `C=CC(=O)N1CCC(c2cc3nccc(Oc4ccc(NC(=O)NC5CC5)c(Cl)c4)c3cc2OC)CC1`: the half-inhibitory concentration (IC50) in the series with Huh-7 and in the series on Hep 3B2 was above 10000 nM in each case. This compound also displayed an inhibition in series [8] of 25.9%.

In the case of `C=CC(=O)N1CCC(c2cc3c(Nc4ccc(OCc5ccccn5)c(Cl)c4)ccnc3cc2OC)CC1`, the concentration for half-maximal inhibition (IC50) with Huh-7 is above 10000 nM; in the series on Hep 3B2, 4020 nM. Also, in series [8], the inhibition amounted to 17.1%.

As for `C=C(F)C(=O)N1CCC(c2cc3c(Oc4ccc(NC(=O)NC5CC5)c(Cl)c4)ccnc3cc2OC)CC1`, the IC50 with Huh-7 and with Hep 3B2 was above 10000 nM in each case. The inhibition in [8] is 21.6%.

Take `C=CC(=O)N1CCC(c2cc3c(Oc4ccc(NC(=O)Nc5cc(C)on5)c(Cl)c4)ccnc3cc2OC)CC1`: the IC50 with Huh-7 was found to be 384 nM; in the series with Hep 3B2, 664 nM. This compound also came in with an inhibition in series [8] of 36.5%.

Regarding `C=CC(=O)N1CCC(c2cc3c(Oc4ccc(/N=C5\CCCN5C)c(Cl)c4)ccnc3cc2OC)CC1`, the IC50 in the series with Huh-7 and with Hep 3B2 was above 10000 nM throughout.

As to `COc1cc2nccc(Oc3ccc(NC(=O)NC4CC4)c(Cl)c3)c2cc1C1CCN(C(=O)/C=C/CN(C)C)CC1`, the IC50 in series [1] was 4.6 nM; in the series on Huh-7, 26.1 nM; with Hep 3B2, 30 nM.

`C=CC(=O)N1CCC(c2cc3c(Oc4ccc(NC(=O)NC5CC5)c(Cl)c4)ccnc3cc2OC)C(C)C1` (stereo not given): the half-inhibitory concentration (IC50) amounted to 5.73 nM in series [1], 16.9 nM in the series with Huh-7 and 13.3 nM with Hep 3B2.

For `COc1cc2nccc(Oc3ccc(NC(=O)NC4CC4)c(Cl)c3)c2cc1C1CCN(C(=O)C(F)(F)F)CC1`, the results for the IC50 with Huh-7 and in the series with Hep 3B2 were 1410 nM and above 10000 nM, respectively. In series [8], this compound registered an inhibition of 25.6%.
